Reference: patent US8921409B2, “Combination of 4-{3-[cis-hexahydrocyclopenta[c]pyrrol-2(1H)-yl]propoxy}benzamide and a NMDA receptor antagonist and pharmaceutical compositions containing the same” (Les Laboratoires Servier, priority 2011, dated 2014)
Counter-ions that a name gives are not always drawn.

Tested on: middle-aged (14-15 months old) C57B16 mouse
Assay: Contextual serial discrimination test (model of episodic memory)
Assay type: in vivo
Text: The effects of 4-{3-[cis-hexahydrocyclopenta[c]pyrrol-2(1H)-yl]propoxy}benzamide and memantine (both in the form of a hydrochloride), administered on their own or in combination, were studied using a contextual discrimination test in the middle-aged (14-15 months old) C57B16 mouse (n=12 per group) (Célérier et al., Learn Mem., 2004, 11(2), 196-204; Tronche et al., Behav. Brain Res., 2010, 215(2): 255-60). In this model, the middle-aged mice have a specific dysfunction of contextual episodic memory compared to young mice, without a deficiency in spatial memory. This model is relevant for evaluating the effects of products in Alzheimer's disease because patients suffering from that form of dementia also have disturbances of contextual episodic memory, this being the case from a very early stage (Gold and Budson, Expert Rev Neurother., 2008, 8(12): 1879-1891).
The mice, placed in a box with raised edges, learn two types of consecutive spatial discrimination (D1: white floor, then D2: black floor) on a floor with four holes, in which just one of the holes is baited, the arrangement being opposite in D1 and in D2. The colour of the floor (black or white) constitutes the internal context specific to each discrimination. 24 hours after the learning step, the mice are returned to the white contextual floor, and the following are measured: • the percentage of correct responses (i.e. % of lowering the head into the hole that was baited during the learning exercise on the white floor), • the percentage of interfering responses (i.e. % of lowering the head into the hole that was baited during the learning exercise on the black floor, the last context presented to the mice), • and the percentage of errors (i.e. % of lowering the head into the two holes that were not baited during learning, whether on the white floor or on the black floor (see FIG. 1).
The power of contextual memory is defined as being the difference between the percentage of correct responses and the percentage of interfering responses. […]

| SMILES | power of contextual memory (% correct responses minus % interfering responses) (compound S hydrochloride 0.1 mg/kg of base per os, chronic treatment for 9 days, carrier −34%) [%] | power of contextual memory (% correct responses minus % interfering responses) (compound S on its own, 1 mg/kg of base per os) | power of contextual memory (% correct responses minus % interfering responses) (memantine hydrochloride 1 mg/kg of base per os, chronic treatment for 9 days, carrier −34%) [%] |
| --- | --- | --- | --- |
| NC(=O)c1ccc(OCCCN2C[C@H]3CCC[C@H]3C2)cc1 [compound S, 4-{3-[cis-hexahydrocyclopenta[c]pyrrol-2(1H)-yl]propoxy}benzamide] | −15 | +14% | – |
| CC12CC3CC(C)(C1)CC(N)(C3)C2 [memantine hydrochloride, memantine, reference compound] | – | – | −2 |
